The source of these data is ChEMBL document CHEMBL5338729, “E3 Ligases Meet Their Match: Fragment-Based Approaches to Discover New E3 Ligands and to Unravel E3 Biology” (J Med Chem, 2023).

pIC50, pKd, pKi: −log10 of the molar value.

Assay [1] deals with T1, E3 ubiquitin-protein ligase RNF4 (Homo sapiens, UniProt P78317).
T1 sequence (P78317 whole entry): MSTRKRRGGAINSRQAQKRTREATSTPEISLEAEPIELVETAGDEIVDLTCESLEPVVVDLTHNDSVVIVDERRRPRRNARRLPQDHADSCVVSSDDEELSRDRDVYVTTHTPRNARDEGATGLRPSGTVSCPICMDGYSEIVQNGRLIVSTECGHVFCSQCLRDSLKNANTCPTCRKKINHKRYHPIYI
As to the kind of experiment: Inhibition of human recombinant RNF4 incubated for 30 mins by SDS-PAGE based densitometry.

The next assay deals with Protein cereblon (Homo sapiens, UniProt Q96SW2). Description: Binding affinity to CRBN (unknown origin) assessed as inhibition constant by FRET assay.
Sequence of Protein cereblon (Q96SW2 whole entry): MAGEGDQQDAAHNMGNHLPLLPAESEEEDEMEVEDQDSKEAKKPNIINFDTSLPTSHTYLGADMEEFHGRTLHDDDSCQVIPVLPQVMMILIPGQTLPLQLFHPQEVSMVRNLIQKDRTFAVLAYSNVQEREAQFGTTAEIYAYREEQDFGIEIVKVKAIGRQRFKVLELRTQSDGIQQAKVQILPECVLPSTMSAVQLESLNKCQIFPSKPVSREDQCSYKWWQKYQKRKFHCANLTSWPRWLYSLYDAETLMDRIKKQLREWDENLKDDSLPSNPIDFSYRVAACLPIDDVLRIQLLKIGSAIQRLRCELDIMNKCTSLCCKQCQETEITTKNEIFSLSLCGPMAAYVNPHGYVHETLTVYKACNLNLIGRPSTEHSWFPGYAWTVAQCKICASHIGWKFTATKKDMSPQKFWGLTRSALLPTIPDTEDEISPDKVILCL
Assay [2] addresses T2, E3 ubiquitin-protein ligase RNF31 (Homo sapiens, UniProt Q96EP0).
T2 sequence (Q96EP0 whole entry): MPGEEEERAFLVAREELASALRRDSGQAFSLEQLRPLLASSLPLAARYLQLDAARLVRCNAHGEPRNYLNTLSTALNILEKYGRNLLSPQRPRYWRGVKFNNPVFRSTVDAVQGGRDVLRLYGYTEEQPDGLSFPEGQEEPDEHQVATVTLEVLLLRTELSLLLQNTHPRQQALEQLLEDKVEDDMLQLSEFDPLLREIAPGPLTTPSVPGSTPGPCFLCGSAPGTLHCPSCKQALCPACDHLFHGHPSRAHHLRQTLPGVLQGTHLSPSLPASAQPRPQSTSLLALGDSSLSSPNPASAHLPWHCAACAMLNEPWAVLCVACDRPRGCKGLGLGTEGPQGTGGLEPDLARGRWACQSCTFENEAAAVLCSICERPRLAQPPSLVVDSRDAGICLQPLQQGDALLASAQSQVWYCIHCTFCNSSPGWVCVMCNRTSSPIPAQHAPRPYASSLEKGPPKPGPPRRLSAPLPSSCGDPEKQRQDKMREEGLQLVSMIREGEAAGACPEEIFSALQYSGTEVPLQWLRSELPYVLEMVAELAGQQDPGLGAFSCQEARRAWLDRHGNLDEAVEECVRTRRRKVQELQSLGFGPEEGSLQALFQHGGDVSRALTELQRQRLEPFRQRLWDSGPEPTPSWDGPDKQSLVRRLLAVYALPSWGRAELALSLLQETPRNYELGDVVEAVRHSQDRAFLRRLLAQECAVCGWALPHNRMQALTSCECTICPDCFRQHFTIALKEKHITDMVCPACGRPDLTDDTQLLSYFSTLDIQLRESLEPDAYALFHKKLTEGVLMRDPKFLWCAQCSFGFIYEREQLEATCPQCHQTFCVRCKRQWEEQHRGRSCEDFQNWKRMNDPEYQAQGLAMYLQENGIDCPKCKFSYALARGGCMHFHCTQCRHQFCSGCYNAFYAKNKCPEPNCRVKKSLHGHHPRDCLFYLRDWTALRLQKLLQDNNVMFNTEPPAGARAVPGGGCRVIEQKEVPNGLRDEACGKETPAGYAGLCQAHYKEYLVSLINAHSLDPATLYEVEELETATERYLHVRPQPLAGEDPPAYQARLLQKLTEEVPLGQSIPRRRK
As to the kind of experiment: Binding affinity to HOIP (unknown origin) assessed as dissociation constant.

The nature of assay [3]: Inhibition of RING1B-BMI1 (unknown origin). On the set-up: species or system Homo sapiens.
Assay [4] is described as follows: Binding affinity to RING1B-BMI1 (unknown origin). On the set-up: species or system Homo sapiens.
The target of assay [5] is von Hippel-Lindau disease tumor suppressor (Homo sapiens, UniProt P40337). As to the kind of experiment: Binding affinity to VHL (unknown origin) assessed as dissociation constant by isothermal titration calorimetry assay.
Sequence of von Hippel-Lindau disease tumor suppressor (P40337 whole entry): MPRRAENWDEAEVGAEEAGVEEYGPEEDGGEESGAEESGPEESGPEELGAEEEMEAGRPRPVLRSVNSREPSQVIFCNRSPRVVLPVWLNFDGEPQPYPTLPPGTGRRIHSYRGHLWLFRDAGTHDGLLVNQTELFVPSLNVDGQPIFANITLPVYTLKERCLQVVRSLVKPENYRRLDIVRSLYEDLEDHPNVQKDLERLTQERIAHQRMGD

The pIC50 is the negative decadic logarithm of the IC50, by convention in mol/L. On to `O=C(CCl)Nc1ccc(Oc2ccccc2)cc1`, for which, in assay [1], the negative logarithm of the IC50 (pIC50) is 5.00. As a reminder, the pKi is the Ki on a negative log10 scale, so that one unit is a factor of ten. Consider `CC(=O)NC(N)=O`, for which the pKi at Protein cereblon was 3.28. As a reminder, the pKd is −log10 of the Kd, conventionally taken in molar units. `COC(=O)/C=C/CNC(=O)c1cc2c([nH]c1=O)CCC2`: the negative-log Kd (pKd) in assay [2] is below 3.40. In assay [3], `CCc1c(-c2cccc3[nH]ccc23)[nH]c(C(=O)O)c1-c1ccccc1Cl` gave a pIC50 of 4.92. Also, the pKd in assay [4] is 4.94.

Turning to `O=c1cc[nH]c(=O)[nH]1` [URACIL], at Protein cereblon, the pKi is 4.46.

Turning to `O=C(O)c1ccc(-c2ccccc2)s1`, the pKd in assay [4] was around 2.15.

On to `O=C1CCNC(=O)N1`, for which, at Protein cereblon, the pKi was 4.06. With `O=C1CCSc2ccc(Cl)cc21`, the negative logarithm of the Kd (pKd) in assay [5] is 2.17. As to `OCc1ccc(-n2cccc2)cc1`, in assay [5], the negative-log Kd (pKd) is 2.30. In the case of `O=C1CNC(=O)N1` [HYDANTOIN], the negative-log Ki (pKi) on Protein cereblon was 4.37. Regarding `CC(C)c1c(-c2cccc3[nH]ccc23)[nH]c(C(=O)O)c1-c1c(Cl)ccc2[nH]ccc12`, the pIC50 in assay [3] is 5.80. In assay [4], this compound had a negative-log Kd (pKd) of 5.55. As to `O=C1CCC(=O)N1` [SUCCINIMIDE], the pKi at Protein cereblon was 5.37. On to `O=C1CCCCN1`, for which the negative-log Ki (pKi) at Protein cereblon was 3.84. Still for that read-out and setting: with `O=C1CCN1` the figure was 4.11.
